Measured values: article PMC10686834, “Targeting myeloid chemotaxis to reverse prostate cancer therapy resistance” (Nature, 2023)

What was measured:
[1] = tested on: CD11b+HLA-DRloCD15+CD14− myeloid cells; experiment: Hyperplex IF of paired pre- and on-treatment mCRPC biopsies: intratumour immune cell density; format: in vivo, human
Procedure: Specific pharmacokinetic collection time points are listed in the study protocol. Pharmacokinetic parameters were calculated using non-compartmental analysis (Phoenix v.8.1, Certara). Fresh tumour needle core biopsies from matched disease sites (lymph node, bone and soft tissue) were collected at baseline (within 1 week of treatment commencement) and approximately 2 weeks after starting AZD5069 in patients when this was deemed safe and feasible. Tumour biopsies were obtained from 18 patients under computerized tomography or ultrasound guidance by an experienced interventional radiologist (N.T.). […] One patient had only a baseline tumour biopsy. Two patients underwent on-treatment biopsies after 4 weeks. Immediately after biopsy, tumour samples were immersed in 10% neutral-buffered formalin for 24 hours. Samples were processed through paraffin wax for histologic examination. […] Baseline FFPE samples were analysed by IHC, and pre- and post-treatment FFPE biopsies were analysed by IF and targeted RNA profiling using HTG EdgeSeq. […]
The hyperplex IF protocol template was generated using the COMET Control Software (v.0.70.0.1, Lunaphore Technologies), and reagents were loaded onto the device to carry out the sequential IF (seqIF) protocol. […] Nuclear signal was detected with DAPI (No. 62248, dilution 1:1,000, Thermo Fisher Scientific) by dynamic incubation of 2 min. […]

[2] = tested on: CYP1A2; parameters: method as in AZD5069 Investigator Brochure (IB); details: at concentrations of up to 100 μmol/L; ref AZD5069 Investigator Brochure (IB); cited from earlier work
[3] = tested on: plasma protein; parameters: method as in AZD5069 Investigator Brochure (IB); details: ref AZD5069 Investigator Brochure (IB); cited from earlier work
[4] = tested on: monkey; details: in vivo; cited from earlier work
[5] = tested on: CYP2D6; parameters: method as in AZD5069 Investigator Brochure (IB); details: at concentrations of up to 100 μmol/L; ref AZD5069 Investigator Brochure (IB); cited from earlier work
[6] = tested on: CYP2C9; parameters: method as in AZD5069 Investigator Brochure (IB); details: ref AZD5069 Investigator Brochure (IB); cited from earlier work

In the case of `C[C@@H](Oc1cc(NS(=O)(=O)N2CCC2)nc(SCc2cccc(F)c2F)n1)[C@@H](O)CO` [AZD5069], the “density of other immune cells in CRPC biopsies” value [1] is listed as “did not significantly alter the density of other immune cells”, the “density of CD11b+HLA-DRloCD15+CD14− myeloid cells in CRPC biopsies” value ([1]; most patients treated with AZD5069 >40 mg BD, approximately 2 weeks after starting treatment) is listed as “reduced the density” and the “inhibition of CYP1A2” value [2] is listed as “not an inhibitor”. For the same compound, the “bound to plasma protein” value [3] was over 96%, the “tolerated single doses (maximum feasible dose)” value [4] was at most 350 mg/kg BD and the “inhibition of CYP2D6” value [5] was “not an inhibitor”. The IC50 [6] was about 53.8 µM.
